Nine compounds from article PMC3509768 (Journal of medicinal chemistry, 2012) can be followed below.

What all share (type): biochemical
Test [1] addresses T1, PfMIF (Plasmodium falciparum, UniProt Q8I5C5). In words: biochemical. The conditions noted are these: for PfMIF tautomerase inhibitory activity (active / inactive): result in words.
For another test, the target named is T2, huMIF (Homo sapiens, UniProt P14174).
T2 sequence (P14174 2-115 limits assumed): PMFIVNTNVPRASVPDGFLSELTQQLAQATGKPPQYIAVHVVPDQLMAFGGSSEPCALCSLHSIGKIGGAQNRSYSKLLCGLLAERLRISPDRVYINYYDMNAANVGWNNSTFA
Briefly: Michaelis-Menten kinetics of 4-HPP tautomerization by huMIF.

The target in test [2] is T1, PfMIF. In words: Michaelis-Menten kinetics of 4-HPP tautomerization by PfMIF.

A word on the Ki: it is a measure of affinity in units of concentration, obtained from inhibition or displacement. Low values mean tighter binding, high ones weaker binding. In general, Km refers to the concentration of substrate that gives half-maximal velocity. The term kcat denotes the maximal rate divided by the concentration of active sites.

With `COc1cccc(Oc2cc(C)nc(N3CCOCC3)c2)c1` [Compound 25h], the Ki at PfMIF [1] is about 40 nM. Take `N#Cc1cccc(Oc2ccc(-c3cccc(O)c3)nc2)c1` [Compound 24j]: the “times more potent than the 3-hydroxyl analogue 24d” value at PfMIF [1] (ratio of PfMIF Ki values) is on record as “roughly 20”. At PfMIF [1], `COc1cc(C)cc(Oc2cc(C)nc(N3CCOCC3)c2)c1` [Compound 25f] had a Ki of 1000 nM. `Oc1cccc(Oc2ccc(-c3cccc(O)c3)nc2)c1` [Compound 24d]: the “PfMIF tautomerase inhibitory activity (active / inactive)” value on PfMIF [1] was “active”.

On to `O=C(O)C(=O)Cc1ccc(O)cc1` [Compound 4-HPP, 4-hydroxyphenylpyruvate], for which the Km at huMIF (enolization) was found to be 1140 ± 216 µM; at huMIF (ketonization) it was 192 ± 47 µM; on PfMIF [2] (enolization) it was 675 ± 46.9 µM; at PfMIF [2] (ketonization) it was 187 ± 50.6 µM. Besides, the catalytic constant (kcat) at huMIF (enolization) amounted to 208.3 ± 19.3 s⁻¹; at huMIF (ketonization) it was 86.62 ± 11.7 s⁻¹; at PfMIF [2] (enolization), 17.98 ± 0.7 s⁻¹; at PfMIF [2] (ketonization) it was 32.90 ± 5.3 s⁻¹. In the case of `Oc1ccc(-c2ccc(Oc3cccc(O)c3)cn2)cc1` [Compound 24e], the “PfMIF tautomerase inhibitory activity (active / inactive)” value on PfMIF [1] was “active”. Same read-out and setting: as for `COc1cccc(Oc2ccnc(N3CCOCC3)c2)c1` [Compound 23], the entry is “active”. Consider `COc1ccc(-c2cc(Oc3cc(C)cc(OC)c3)cc(C)n2)cc1` [Compound 26k], for which the Ki on PfMIF [1] was about 40 nM. As for `Cc1cc(Oc2cccc(O)c2)nc(-c2ccccc2)n1` [Compound 20], the “times less potent than 25h” value at PfMIF [1] (ratio of PfMIF Ki values) is “more than 400”. Moreover, the “PfMIF tautomerase inhibitory activity (active / inactive)” value on PfMIF [1] is listed as “active”.
